# US11401247B2, “Thiazole-5-carboxylic acid derivative and preparation method and use thereof” (XIANGBEI WELMAN PHARMACEUTICAL CO., LTD, priority 2018, dated 2022)
# Like-named read-outs stand apart in the source and are kept apart here.
# Key:
# in vivo = settings: mouse, po
# ICR mice = settings: for Autopsy results of survival animals: 3000 mg/kg ig; for Abnormal reactions within 12 hours from ig administration: F compounds 3000 mg/kg; for Number of dead animals: ig 3000 mg/kg, 10 mice; for death, preliminary experiments / toxic reactions, preliminary experiments: intragastric 1600 mg/kg
# hyperuricemia rats = assay: pharmacodynamic screening in rat hyperuricemia model (exogenous uric acid administered, uric acid decomposition inhibited); assay type: in vivo, SD rats; settings: for Serum uric acid level, Value after 3 h of drug administration: 10 mg/kg oral, 3 h after first administration, model group 174.4 ± 39.9, blank 53.9 ± 12.8; for uric acid-lowering effect (in words): 3 h after drug administration, febuxostat and ethyl ester 14 mg/kg oral; for uric acid-lowering effect (in words) / p, uric acid level 3 h after drug administration compared with the blank group: F compounds 10 mg/kg; for p, uric acid level 3 h after drug administration compared with the blank group: febuxostat 14 mg/kg oral
# [1] = formal test, all dose groups, febuxostat high-dose group
# [2] = formal test, febuxostat high-dose group
SMILES,LD50 at 14 days (in vivo),LD50 at 14 days (in vivo; 3000 mg/kg),Autopsy results of survival animals (ICR mice; formal test),animal deaths within 24 hours from the administration (ICR mice; [1]),Abnormal reactions within 12 hours from ig administration (ICR mice; [2]),Number of dead animals (ICR mice),"death, preliminary experiments (ICR mice; mice)","toxic reactions, preliminary experiments (ICR mice; mice)","Serum uric acid level, Value after 3 h of drug administration (hyperuricemia rats)","animal deaths within 24 hours from the administration (ICR mice; mouse, in vivo)",uric acid-lowering effect (in words) (hyperuricemia rats),"p, uric acid level 3 h after drug administration compared with the blank group (hyperuricemia rats)","LD50/Maximum dose (ICR mice; ig once, mice, 14 days observation, Bliss method, febuxostat: LD50, F compounds: maximum administration dose, no deaths)"
Cc1nc(-c2ccc(OCC(C)C)c(C#N)c2)sc1C(=O)OCCO [Compound F-1A],3000 mg/kg,≥ 3000 mg/kg,No obvious abnormalities were observed in the organs,no animal deaths were observed,no abnormalities were observed,0,no animal died,no obvious toxicity symptom was observed,71.0 ± 24.4^a3b3c1 μmol/L,–,–,–,–
Cc1nc(-c2ccc(OCC(C)C)c(C#N)c2)sc1C(=O)OCC(O)CO (stereo not drawn) [Compound F-1B],3000 mg/kg,≥ 3000 mg/kg,No obvious abnormalities were observed in the organs,–,no abnormalities were observed,0,–,no obvious toxicity symptom was observed,67.5 ± 19.4^a3b3 μmol/L,no animal deaths were observed,very obvious uric acid-lowering effects,no significant difference,–
Cc1nc(-c2ccc(OCC(C)C)c(C#N)c2)sc1C(=O)NCC(=O)O [Compound F-2A],3000 mg/kg,≥ 3000 mg/kg,No obvious abnormalities were observed in the organs,no animal deaths were observed,no abnormalities were observed,0,no animal died,no obvious toxicity symptom was observed,78.3 ± 25.1^a3b3c2 μmol/L,–,–,< 0.01,–
Cc1nc(-c2ccc(OCC(C)C)c(C#N)c2)sc1C(=O)NC(C)C(=O)O (stereo not drawn) [Compound F-2B],–,–,No obvious abnormalities were observed in the organs,no animal deaths were observed,no abnormalities were observed,0,no animal died,no obvious toxicity symptom was observed,70.3 ± 16.4^a3b3c1 μmol/L,–,–,–,3000 mg/kg
Cc1nc(-c2ccc(OCC(C)C)c(C#N)c2)sc1C(=O)N1CCC[C@H]1C(=O)O [Compound F-2D],3000 mg/kg,≥ 3000 mg/kg,No obvious abnormalities were observed in the organs,no animal deaths were observed,no abnormalities were observed,0,no animal died,no obvious toxicity symptom was observed,69.1 ± 23.4^a3b3c1 μmol/L,–,–,–,–
Cc1nc(-c2ccc(OCC(C)C)c(C#N)c2)sc1C(=O)OCCCN(C)CCCO [Compound F-3B],3000 mg/kg,≥ 3000 mg/kg,No obvious abnormalities were observed in the organs,no animal deaths were observed,no abnormalities were observed,0,no animal died,no obvious toxicity symptom was observed,66.3 ± 17.1^a3b3 μmol/L,–,very obvious uric acid-lowering effects,no significant difference,–
